The values that follow come from US7238795B2, “Nucleic acid binding compounds containing pyrazolo[3,4-d]pyrimidine analogues of purin-2,6-diamine and their uses” (Roche Molecular Systems, Inc., priority 2000, dated 2007).

For data set [1], the system named is complementary oligodeoxyribonucleotide strand (antiparallel duplex). The data set can be described thus: Tm values and thermodynamic data of antiparallel DNA-DNA duplexes (UV melting curves, Meltwin 3.0). It counts as binding.
Data set [2] in a line: Half-life of the N-glycosylic bond in HCl, followed UV-spectrophotometrically and by HPLC. It counts as physicochemical. Particulars: 25°; for half-life: read-out: Half-life τ. Here is the method:
Next, the half-lives of the N-glycosylic bonds of compounds 2a,b in acidic medium were measured and compared with that of compound 1. […]

Data set [3] deals with T1, adenosine deaminase (ADA) (Homo sapiens, UniProt P00813).
T1 sequence (P00813 1-363): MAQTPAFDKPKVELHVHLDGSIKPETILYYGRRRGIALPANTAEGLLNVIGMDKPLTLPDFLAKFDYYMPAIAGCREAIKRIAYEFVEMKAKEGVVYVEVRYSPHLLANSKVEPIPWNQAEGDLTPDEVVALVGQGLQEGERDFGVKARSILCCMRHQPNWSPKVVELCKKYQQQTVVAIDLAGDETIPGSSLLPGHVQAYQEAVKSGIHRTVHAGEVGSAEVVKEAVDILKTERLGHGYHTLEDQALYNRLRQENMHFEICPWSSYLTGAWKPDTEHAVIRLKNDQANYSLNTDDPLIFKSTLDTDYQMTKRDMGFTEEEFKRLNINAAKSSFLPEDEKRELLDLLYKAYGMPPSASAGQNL
The data set is described as follows: Deamination by adenosine deaminase, followed UV-spectrophotometrically. It counts as biochemical. To be noted: compared with purine nucleoside 1; even at high enzyme concentrations. The source says:
The reaction was followed UV-spectrophoto-metrically (FIG. 1a).
The time-dependent spectra show two isosbestic points (λ=234 nm and 267 nm) indicating the conversion of the starting material into only one reaction product. The deamination of 2a occurs much slower than that of the purine nucleoside 1.

A short description of data set [4]: Deprotection (alkaline hydrolysis) of base-protected nucleosides in aqueous ammonia, HPLC monitoring. Particulars: for time of complete deprotection: conc. ammonia, 40°.
For data set [5] the following is noted: buffer.
Data set [6] relates to complementary oligodeoxyribonucleotide strand (antiparallel duplex). Particulars: data published so far; n^2Ad instead of dA; cited from earlier work.
Where [7] appears, read: 25% aq. NH3, 40°, HPLC-monitoring.

SMILES strings stand for the structures. Several values for one entry are separate records, joined by “and”; a condition that tells them apart may be missing. Identical values can stand only once. Like-named read-outs stand apart in the source and are kept apart here.

The half-life is how long it takes for the measured level to halve. Consider `Nc1nc(N)c2c(Br)nn([C@H]3C[C@H](O)[C@@H](CO)O3)c2n1` [2b, 3-Bromo-1-[2-deoxy-β-D-erythro-pentofuranosyl]-1H-pyrazolo[3,4-d]-pyrimidin-4,6-diamine], for which the “Tm increase (stabilization) per modified residue” value in data set [1] (text Example 2, standard duplex 102•103) was 4.5 ° and 4-5 °. Also, the “Tm-value of duplex 102•103 with six residues replacing dA” value in data set [1] (text b259) worked out at 75 °. Also, in data set [2] (0.5 N HCl, Stable = within 4 h), the “Half-life τ” value is “Stable^b)”. The half-life in data set [2] (2 N HCl) worked out at 87 min. Besides, in data set [3], the “deamination by adenosine deaminase” value was “not deaminated”.
`CCCCN(C=Nc1nc(N=CN(CCCC)CCCC)c2c(Br)nn([C@H]3C[C@H](O)[C@@H](CO)O3)c2n1)CCCC` [8b, N^4,N^6-Bis((di-n-butylamino)methylene)-3-bromo-1-[2-deoxy-β-D-erythro-pentofuranosyl]-1H-pyrazolo[3,4-d]-pyrimidin-4,6-diamine]: the “time of complete deprotection” value in data set [4] (HPLC-monitoring at 260 nm) came out at 450 min.
Consider `O=C(Nc1nc(NC(=O)c2ccccc2)c2cnn([C@H]3C[C@H](O)[C@@H](CO)O3)c2n1)c1ccccc1` [5b, N^4,N^6-Bis(benzoyl)-1-[2-deoxy-β-D-erythro-pentofuranosyl]-1H-pyrazolo[3,4-d]-pyrimidin-4,6-diamine], for which the “complete removal of the two benzoyl groups” value in data set [4] (25% aq. NH3, 40°, HPLC monitoring) was in the range of 8 to 9 h.
On to `O=C(COc1ccccc1)Nc1nc(NC(=O)COc2ccccc2)c2cnn([C@H]3C[C@H](O)[C@@H](CO)O3)c2n1` [5a, N^4,N^6-Bis(phenoxyacetyl)-1-[2-deoxy-β-D-erythro-pentofuranosyl]-1H-pyrazolo[3,4-d]-pyrimidin-4,6-diamine], for which, in data set [4] (setting [7]), the “removal of the first pac-group” value is on record as at most 5 min and the “removal of the second pac-group” value came out at 20 min. Also, the complete deprotection entry in data set [4] (25% aq. NH3 at r.t.) is on record as “less than one hour”.
Consider `O=C(Nc1nc(NC(=O)c2ccccc2)c2c(I)nn([C@H]3C[C@H](O)[C@@H](CO)O3)c2n1)c1ccccc1` [13b, 1-[2-Deoxy-β-D-erythro-pentofuranosyl]-4,6-dibenzamido-3-iodo-1H-pyrazolo[3,4-d]-pyrimidine], for which the “time for complete deprotection” value in data set [4] (25% aq. NH3, 40° C., HPLC-monitoring at 260 nm) turned out to be 450 min.
As for `CC(C)C(=O)Nc1nc(NC(=O)C(C)C)c2c(Br)nn([C@H]3C[C@H](O)[C@@H](CO)O3)c2n1` [13a, 3-Bromo-1-(2-deoxy-β-D-erythro-pentofuranosyl)-4,6-[(2-methylpropanoyl)amino]-1H-pyrazolo[3,4-d]pyrimidine], the “half-life of alkaline hydrolysis” value in data set [5] was determined as 4.5 min.
With `CC(C)C(=O)Nc1nc(N)c2c(Br)nn([C@H]3C[C@H](O)[C@@H](CO)O3)c2n1` [compound 14, 4-Amino-3-bromo-1-(2-deoxy-β-D-erythro-pentofuranosyl)-6-[(2-methylpropanoyl)amino]-1H-pyrazolo[3,4-d]pyrimidine], the “half-life of alkaline hydrolysis” value in data set [4] (25% aq. NH3 at 40°) is given as 20.5 min.
Take `Nc1nc(N)c2c(I)nn([C@H]3C[C@H](O)[C@@H](CO)O3)c2n1` [2c, 1-(2-Deoxy-β-D-erythro-pentofuranosyl)-3-iodo-1H-pyrazolo[3,4-d]-pyrimidin-4,6-diamine]: in data set [2] (Table 8, 0.5 N HCl, stable = within 3 h), the “Half-life τ” value is given as “stable^b)”. For the same molecule, the half-life in data set [2] (Table 8, 2 N HCl) came to 61 min.
Consider `Nc1nc(N)c2ncn([C@H]3C[C@H](O)[C@@H](CO)O3)c2n1` [compound 1, 2-amino-2′-deoxyadenosine, reference compound], for which, in data set [6], the “Tm-increase of DNA duplex” value is 1-2 °C. In addition, the half-life in data set [2] (0.5 N HCl, Stable = within 4 h) worked out at 6 min.
Turning to `CCCCN(C=Nc1nc(N=CN(CCCC)CCCC)c2cnn([C@H]3C[C@H](O)[C@@H](CO)O3)c2n1)CCCC` [8a, N^4,N^6-Bis((di-n-butylamino)methylene)-1-[2-deoxy-β-D-erythro-pentofuranosyl]-1H-pyrazolo[3,4-d]-pyrimidin-4,6-diamine], the “time of complete deprotection” value in data set [4] (HPLC-monitoring at 260 nm) is reported as 440 min.
